# Results reported in patent publication US20040204577A1, “Novel peptide-forming enzyme gene” (Ajinomoto Co., Inc., priority 2003, published 2004).
# Where a SMILES comes first, the peptide text is derived from it.
# Assays:
# [1] = test system: peptide-forming enzyme (Mono S fraction enzyme); assay: Enzyme inhibitors: effects on the production of L-alanyl-L-glutamine; format: biochemical, Empedobacter brevis; settings: for Inhibition of the enzyme (in words): serine enzyme inhibitors at 10 mM
# [2] = test system: peptide-forming enzyme (Mono S fraction enzyme); assay: Enzyme substrate specificity (1)-(10), (13), (14): peptide production; format: biochemical, Empedobacter brevis; settings: pH 9.0, 25° C., 3 hours; for Formed peptide: L-amino acid 150 mM; for Produced peptide: L-amino acid ester 100 mM, peptide (amine component) 150 mM
# How it was run: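 Mono S enzyme fraction in 100 mM borate buffer (pH 9.0) with 10 mM EDTA and 100 mM carboxy component (amino acid methyl esters or amides); amine components (L-glutamine, amino acids, amino acid amides or methylamine) at 150 mM, or 200 mM L-glutamine with varied esters. Reactions ran at 25° C for 2–3 hours; 0.1% Tween-80 added for Trp/Tyr-OMe.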
# [3] = test system: enzyme derived from Sphingobacterium sp. strain FERM BP-8124 (SP-Sepharose HP fraction enzyme); assay: Enzyme substrate specificity (11), (12): peptide production; format: biochemical; parameters: key to Produced peptide (Table 15-1) / Produced peptide (Table 15-3) / Produced peptide (Table 15-4): +: those peptides for which production was confirmed but which were unable to be quantified due to the absence of a standard; a trace amount; settings: carboxy component 100 mM, amine component 150 mM, 0.33 units enzyme, pH 9.0, 25° C., 1.5 hours; for Produced peptide (Table 15-4): amides and methylamine
# From the text: Substrate specificity was examined for enzyme derived from Sphingobacterium sp. strain FERM BP-8124 (Depositary institution: the independent administrative corporation, National Institute of Advanced Industrial Science and Technology, International Patent Organism Depositary, Address of depositary institution: Chuo Dai-6, 1-1 Higashi 1-Chome, Tsukuba-shi, Ibaraki-ken, Japan, International deposit date: […] The amounts of various peptides formed in this reaction are shown in Table 15. The “+” mark indicates those peptides for which production was confirmed but which were unable to be quantified due to the absence of a standard, while “tr” indicates a trace amount. Furthermore, Tween-80 was added to the reaction system to a final concentration of 0.1% in the case of using L-Tyr-OMe. In addition, hydrochloride salts were used for all carboxy components. Substrate specificity with respect to oligopeptide production was examined for enzyme derived from Sphingobacterium sp. strain FERM BP-8124 (Depositary institution: the independent administrative corporation, National Institute of Advanced Industrial Science and Technology, International Patent Organism Depositary, Address of depositary institution: Chuo Dai-6, 1-1 Higashi 1-Chome, Tsukuba-shi, Ibaraki-ken, Japan, International deposit date: […] The amounts of each oligopeptide formed in this reaction are shown in Table 16. Furthermore, hydrochloride salts were used for all the carboxy components.
# [4] = test system: microbial cells of Empedobacter brevis strain FERM BP-8113; assay: Production of peptide using microbial cells; format: cell-based; settings: 1 mL cell suspension (100 g/L) + 1 mL buffer with 200 mM carboxy component (hydrochloride) and 400 mM amino acid; borate buffer pH 9.0, 10 mM EDTA; 18° C., 2 hours
# Experimental: A 50 mL medium (pH 6.2) containing 5 grams (g) of glucose, 5 g of ammonium sulfate, 1 g of monopotassium phosphate, 3 g of dipotassium phosphate, 0.5 g of magnesium sulfate, 10 g of yeast extract and 10 g of peptone in 1 liter (L) was transferred to a 500 mL Sakaguchi flask and sterilized at 115° C. for 15 minutes. This medium was then inoculated with one loopful cells of Empedobacter brevis strain FERM BP-8113 (Depositary institution: the independent administrative corporation, National Institute of Advanced Industrial Science and Technology, International Patent Organism Depositary, Address of depositary institution: Chuo Dai-6, 1-1 Higashi 1-Chome, Tsukuba-shi, Ibaraki-ken, Japan, International deposit transfer date: Jul. 8, 2002) that had been cultured at 30° C. for 16 hours in the same medium, followed by shake culturing at 30° C. for 16 hours and 120 strokes/min.
# [5] = Comparison of ability to catalyze peptide formation with known enzymes; format: biochemical; settings: for L-Ala-L-Gln production rate: 100 mM L-alanine methyl ester hydrochloride, 200 mM L-glutamine, pH 9.0, 25° C., enzyme added 0.02-3.60 protein mg/ml as in Table 14; for Ratio of L-Ala-L-Gln production rate per enzyme unit weight: enzyme of present invention = 100.0
# From the text: The enzyme homogeneously purified in Example 3 was used as a source of the present enzyme of the present invention.
# [6] = inhibitor at 10 mM, borate buffer pH 9.0, 25° C., 5 minutes, 100 = absence of enzyme inhibitor
# [7] = L-amino acid methyl ester hydrochloride 100 mM
# [8] = 100 mM L-alanine methyl ester hydrochloride
# [9] = L-amino acid amide hydrochloride as carboxy component 100 mM
molecule,measurement,setting,value
"O=C(O)CN(CCN(CC(=O)O)CC(=O)O)CC(=O)O [EDTA, ethylene diamine tetraacetic acid]",Relative activity of L-Ala-L-Gln production,[1]; [6],96%
NCC(=O)N[C@@H](Cc1cnc[nH]1)C(=O)O [Gly-L-His] (H-Gly-His-OH),Formed peptide,[2]; [7],31.6 mM
same,Produced peptide (Table 15-3),[3],36.2 mM
same,Formed peptide,[4],22.1 mM
C[C@H](N)C(=O)N[C@@H](CCCN=C(N)N)C(=O)O [L-Ala-L-Arg] (H-Ala-Arg-OH),Formed peptide,[2]; [8],88.0 mM
same,Produced peptide (Table 15-1),[3],72.2 mM
same,Formed peptide,[4],72.1 mM
C[C@H](N)C(=O)N[C@@H](Cc1cnc[nH]1)C(=O)O [L-Ala-L-His] (H-Ala-His-OH),Formed peptide,[2]; [8],66.9 mM
same,Formed peptide,[2]; [9],3.9 mM
same,Produced peptide (Table 15-4),[3],tr
same,Produced peptide (Table 15-1),[3],73.6 mM
same,Formed peptide,[4],52.1 mM
CC(C)C[C@H](NC(=O)[C@H](C)N)C(=O)O [L-Ala-L-Leu] (H-Ala-Leu-OH),Formed peptide,[2]; [8],45.3 mM
same,Produced peptide (Table 15-1),[3],33.0 mM
same,Formed peptide,[4],38.2 mM
CSCC[C@H](NC(=O)[C@H](C)N)C(=O)O [L-Ala-L-Met] (H-Ala-Met-OH),Formed peptide,[2]; [8],83.3 mM
same,Formed peptide,[2]; [9],3.4 mM
same,Produced peptide (Table 15-4),[3],tr
same,Produced peptide (Table 15-1),[3],86.9 mM
same,Formed peptide,[4],68.3 mM
C[C@H](N)C(=O)N[C@@H](Cc1ccccc1)C(=O)O [L-Ala-L-Phe],Formed peptide,[2]; [8],74.4 mM
same,Produced peptide (Table 15-1),[3],69.5 mM
same,Formed peptide,[4],62.4 mM
C[C@H](N)C(=O)N[C@@H](CO)C(=O)O [L-Ala-L-Ser] (H-Ala-Ser-OH),Formed peptide,[2]; [8],62.5 mM
same,Produced peptide (Table 15-1),[3],43.8 mM
same,Formed peptide,[4],51.3 mM
CC[C@H](C)[C@H](N)C(=O)N[C@@H](CCSC)C(=O)O [L-Ile-L-Met] (H-Ile-Met-OH),Formed peptide,[2]; [7],10.0 mM
same,Produced peptide (Table 15-3),[3],5.1 mM
same,Formed peptide,[4],8.3 mM
CSCC[C@H](N)C(=O)N[C@@H](Cc1ccccc1)C(=O)O [L-Met-L-Phe] (H-Met-Phe-OH),Produced peptide (Table 15-3),[3],8.9 mM
same,Formed peptide,[4],28.5 mM
N[C@@H](CO)C(=O)N[C@@H](CO)C(=O)O [L-Ser-L-Ser] (H-Ser-Ser-OH),Formed peptide,[2]; [7],38.0 mM
same,Produced peptide (Table 15-3),[3],9.9 mM
same,Formed peptide,[4],29.0 mM
CC(C)C[C@H](NC(=O)[C@@H](N)[C@@H](C)O)C(=O)O [L-Thr-L-Leu] (H-Thr-Leu-OH),Formed peptide,[2]; [7],28.4 mM
same,Produced peptide (Table 15-3),[3],15.3 mM
same,Formed peptide,[4],23.0 mM
CSCC[C@H](NC(=O)[C@@H](N)C(C)C)C(=O)O [L-Val-L-Met] (H-Val-Met-OH),Formed peptide,[2]; [7],10.3 mM
same,Produced peptide (Table 15-3),[3],6.8 mM
same,Formed peptide,[4],10.5 mM
O=C(O)CI [Monoiodoacetate],Relative activity of L-Ala-L-Gln production,[1]; pH 9,101%
CCN1C(=O)C=CC1=O [N-Ethyl maleimide],Relative activity of L-Ala-L-Gln production,[1]; [6],110%
"O=S(=O)(F)Cc1ccccc1 [Phenylmethylsulfonyl fluoride, phenylmethylsulfonyl fluoride]",Relative activity of L-Ala-L-Gln production,[1]; [6],115%
same,Inhibition of the enzyme (in words),[1],not inhibited
"c1cnc2c(c1)ccc1cccnc12 [o-Phenanthroline, o-phenanthroline]",Relative activity of L-Ala-L-Gln production,[1]; [6],96%
"N=C(N)Nc1ccc(C(=O)Oc2ccc([N+](=O)[O-])cc2)cc1 [p-Nitrophenyl-p′-guanidino benzoate, p-nitrophenyl-p′-guanidinobenzoate]",Relative activity of L-Ala-L-Gln production,[1]; [6],0.1%
same,Inhibition of the enzyme (in words),[1],inhibited
Bromelain,L-Ala-L-Gln production rate,[5],0.0062 mM/min
same,Ratio of L-Ala-L-Gln production rate per enzyme unit weight,[5],0.0010
"Chymopapain: thiol endopeptidase described in EP 359399B1, purified enzyme manufactured by Sigma",L-Ala-L-Gln production rate,[5],0.0100 mM/min
same,Ratio of L-Ala-L-Gln production rate per enzyme unit weight,[5],0.0013
Ficin,L-Ala-L-Gln production rate,[5],0.0096 mM/min
same,Ratio of L-Ala-L-Gln production rate per enzyme unit weight,[5],0.0017
L-Ala-Gly-Gly,Produced peptide,[2],41.7 mM
same,"Produced peptide (Table 16, oligopeptide)",[3],33.7 mM
L-Ala-Gly-L-Ala,Produced peptide,[2],25.9 mM
same,"Produced peptide (Table 16, oligopeptide)",[3],35.1 mM
L-Ala-L-Ala-L-Ala,Produced peptide,[2],57.5 mM
same,"Produced peptide (Table 16, oligopeptide)",[3],41.1 mM
L-Ala-L-Ala-L-Ala-L-Ala,Produced peptide,[2],44.5 mM
same,"Produced peptide (Table 16, oligopeptide)",[3],30.1 mM
L-Ala-L-Ala-L-Ala-L-Ala-L-Ala,Produced peptide,[2],34.8 mM
same,"Produced peptide (Table 16, oligopeptide)",[3],22.8 mM
L-Ala-L-His-L-Ala,Produced peptide,[2],55.9 mM
same,"Produced peptide (Table 16, oligopeptide)",[3],58.0 mM
L-Ala-L-Leu-L-Ala,Produced peptide,[2],48.3 mM
same,"Produced peptide (Table 16, oligopeptide)",[3],40.7 mM
L-Ala-L-Phe-Gly,Produced peptide,[2],43.7 mM
same,"Produced peptide (Table 16, oligopeptide)",[3],34.0 mM
L-Ala-L-Phe-L-Ala,Produced peptide,[2],49.7 mM
same,"Produced peptide (Table 16, oligopeptide)",[3],24.8 mM
L-Thr-Gly-Gly,Produced peptide,[2],83.0 mM
same,"Produced peptide (Table 16, oligopeptide)",[3],8.4 mM
"Papain: thiol endopeptidase described in EP 359399B1, purified enzyme manufactured by Sigma (protein, UniProt P00784 134-345, looked up) Papain: IPEYVDWRQKGAVTPVKNQGSCGSCWAFSAVVTIEGIIKIRTGNLNEYSEQELLDCDRRSYGCNGGYPWSALQLVAQYGIHYRNTYPYEGVQRYCRSREKGPYAAKTDGVRQVQPYNEGALLYSIANQPVSVVLEAAGKDFQLYRGGIFVGPCGNKVDHAVAAVGYGPNYILIKNSWGTGWGENGYIRIKRGTGNSYGVCGLYTSSFYPVKN",L-Ala-L-Gln production rate,[5],0.0106 mM/min
same,Ratio of L-Ala-L-Gln production rate per enzyme unit weight,[5],0.0021
"Carboxypeptidase Y: known enzyme described in EP 278787A1, purified enzyme manufactured by Sigma (protein, UniProt P00729 112-532, looked up) Carboxypeptidase Y: KIKDPKILGIDPNVTQYTGYLDVEDEDKHFFFWTFESRNDPAKDPVILWLNGGPGCSSLTGLFFELGPSSIGPDLKPIGNPYSWNSNATVIFLDQPVNVGFSYSGSSGVSNTVAAGKDVYNFLELFFDQFPEYVNKGQDFHIAGESYAGHYIPVFASEILSHKDRNFNLTSVLIGNGLTDPLTQYNYYEPMACGEGGEPSVLPSEECSAMEDSLERCLGLIESCYDSQSVWSCVPATIYCNNAQLAPYQRTGRNVYDIRKDCEGGNLCYPTLQDIDDYLNQDYVKEAVGAEVDHYESCNFDINRNFLFAGDWMKPYHTAVTDLLNQDLPILVYAGDKDFICNWLGNKAWTDVLPWKYDEEFASQKVRNWTASITDEVAGEVKSYKHFTYLRVFNGGHMVPFDVPENALSMVNEWIHGGFSL",L-Ala-L-Gln production rate,[5],0.0257 mM/min
same,Ratio of L-Ala-L-Gln production rate per enzyme unit weight,[5],0.0191
